Assay results from paper PMC4947982 (Journal of Medicinal Chemistry, 2016).

Conditions: 5 mM DMSO-solutions

SMILES	solubility in DMSO
CC(C)(C)c1ccc(-c2cn(-c3cc(C(=O)O)cc(-c4ccc(C5CCNCC5)cc4)c3)nn2)cc1 [Compound 79, 5-(4-(4-(tert-Butyl)phenyl)-1H-1,2,3-triazol-1-yl)-4′-(piperidin-4-yl)-[1,1′-biphenyl]-3-carboxylic Acid]	low solubility
CCCCCOc1ccc(-c2cn(-c3cc(C(=O)O)cc(-c4ccc(C5CCNCC5)cc4)c3)nn2)cc1 [Compound 82, 5-(4-(4-(Pentyloxy)phenyl)-1H-1,2,3-triazol-1-yl)-4′-(piperidin-4-yl)-[1,1′-biphenyl]-3-carboxylic Acid]	low solubility
COc1ccc(-c2cn(-c3cc(C(=O)O)cc(-c4ccc(C5CCNCC5)cc4)c3)nn2)cc1OC [Compound 95, 5-(4-(3,4-Dimethoxyphenyl)-1H-1,2,3-triazol-1-yl)-4′-(piperidin-4-yl)-[1,1′-biphenyl]-3-carboxylic Acid]	low solubility
O=C(O)c1cc(-c2ccc(C3CCNCC3)cc2)cc(-n2cc(-c3cc4ccccc4o3)nn2)c1 [Compound 101, 5-(4-(Benzofuran-2-yl)-1H-1,2,3-triazol-1-yl)-4′-(piperidin-4-yl)-[1,1′-biphenyl]-3-carboxylic Acid]	low solubility
